Data reported in BindingDB's records for doi:10.1021/acs.jnatprod.6b00597 (Chang Gung Memorial Hospital, 2016).

Assays:
[1] = Inhibition of human ABCB1 transfected in HEK293 cells assessed as potentiation of doxorubicin-induced cytotoxicity by measuring doxorubicin IC50 at 1000 nM after 72 hrs by CCK8 assay (Rvb = 504.65 +/- 44.94 nM)
[2] = Inhibition of human ABCB1 expressed in NCI-ADR-RES cells assessed as potentiation of colchicine-induced cytotoxicity by measuring colchicine IC50 at 1000 nM after 72 hrs by MTT assay (Rvb = 1607.50 +/- 497.42 nM)
[3] = Inhibition of human ABCB1 expressed in NCI-ADR-RES cells assessed as potentiation of doxorubicin-induced cytotoxicity by measuring doxorubicin IC50 at 1000 nM after 72 hrs by MTT assay (Rvb = 5.54 +/- 0.60 uM)
[4] = Inhibition of human ABCB1 expressed in NCI-ADR-RES cells assessed as potentiation of vincristine-induced cytotoxicity by measuring vincristine IC50 at 1000 nM after 72 hrs by MTT assay (Rvb = 3714.80 +/- 383.58 nM)
[5] = Inhibition of human ABCB1 expressed in KBV1 cells assessed as potentiation of doxorubicin-induced cytotoxicity by measuring doxorubicin IC50 at 1000 nM after 72 hrs by MTT assay (Rvb = 5.07 +/- 0.19 uM)
[6] = Inhibition of human ABCB1 expressed in KBV1 cells assessed as potentiation of vincristine-induced cytotoxicity by measuring vincristine IC50 at 1000 nM after 72 hrs by MTT assay (Rvb = 277.68 +/- 56.61 nM)
[7] = Inhibition of human ABCB1 expressed in KBV1 cells assessed as potentiation of doxorubicin-induced cytotoxicity by measuring doxorubicin IC50 at 50 nM after 72 hrs by MTT assay (Rvb = 5.07 +/- 0.19 uM)
[8] = Inhibition of human ABCB1 expressed in NCI-ADR-RES cells assessed as potentiation of doxorubicin-induced cytotoxicity by measuring doxorubicin IC50 at 500 nM after 72 hrs by MTT assay (Rvb = 5.54 +/- 0.60 uM)
[9] = Inhibition of human ABCB1 expressed in KBV1 cells assessed as potentiation of vincristine-induced cytotoxicity by measuring vincristine IC50 at 500 nM after 72 hrs by MTT assay (Rvb = 277.68 +/- 56.61 nM)
[10] = Inhibition of human ABCB1 expressed in KBV1 cells assessed as potentiation of vincristine-induced cytotoxicity by measuring vincristine IC50 at 200 nM after 72 hrs by MTT assay (Rvb = 277.68 +/- 56.61 nM)
[11] = Inhibition of human ABCB1 expressed in NCI-ADR-RES cells assessed as potentiation of colchicine-induced cytotoxicity by measuring colchicine IC50 at 200 nM after 72 hrs by MTT assay (Rvb = 1607.50 +/- 497.42 nM)
[12] = Inhibition of human ABCB1 expressed in NCI-ADR-RES cells assessed as potentiation of colchicine-induced cytotoxicity by measuring colchicine IC50 at 100 nM after 72 hrs by MTT assay (Rvb = 1607.50 +/- 497.42 nM)
[13] = Inhibition of human ABCB1 expressed in KBV1 cells assessed as potentiation of doxorubicin-induced cytotoxicity by measuring doxorubicin IC50 at 200 nM after 72 hrs by MTT assay (Rvb = 5.07 +/- 0.19 uM)
[14] = Inhibition of human ABCB1 expressed in KBV1 cells assessed as potentiation of vincristine-induced cytotoxicity by measuring vincristine IC50 at 100 nM after 72 hrs by MTT assay (Rvb = 277.68 +/- 56.61 nM)
[15] = Inhibition of human ABCC1 transfected in HEK293 cells assessed as potentiation of etoposide-induced cytotoxicity by measuring etoposide IC50 at 500 nM after 72 hrs by CCK8 assay (Rvb = 38.54 +/- 5.62 nM)
[16] = Inhibition of human ABCB1 expressed in KBV1 cells assessed as potentiation of colchicine-induced cytotoxicity by measuring colchicine IC50 at 200 nM after 72 hrs by MTT assay (Rvb = 487.57 +/- 30.54 nM)
[17] = Inhibition of human ABCB1 expressed in KBV1 cells assessed as potentiation of vincristine-induced cytotoxicity by measuring vincristine IC50 at 50 nM after 72 hrs by MTT assay (Rvb = 277.68 +/- 56.61 nM)
[18] = Inhibition of human ABCB1 expressed in KBV1 cells assessed as potentiation of colchicine-induced cytotoxicity by measuring colchicine IC50 at 500 nM after 72 hrs by MTT assay (Rvb = 487.57 +/- 30.54 nM)
[19] = Inhibition of human ABCB1 expressed in NCI-ADR-RES cells assessed as potentiation of vincristine-induced cytotoxicity by measuring vincristine IC50 at 500 nM after 72 hrs by MTT assay (Rvb = 3714.80 +/- 383.58 nM)
[20] = Inhibition of human ABCB1 expressed in NCI-ADR-RES cells assessed as potentiation of doxorubicin-induced cytotoxicity by measuring doxorubicin IC50 at 200 nM after 72 hrs by MTT assay (Rvb = 5.54 +/- 0.60 uM)
[21] = Inhibition of human ABCB1 transfected in HEK293 cells assessed as potentiation of doxorubicin-induced cytotoxicity by measuring doxorubicin IC50 at 100 nM after 72 hrs by CCK8 assay (Rvb = 504.65 +/- 44.94 nM)
[22] = Inhibition of human ABCB1 expressed in NCI-ADR-RES cells assessed as potentiation of colchicine-induced cytotoxicity by measuring colchicine IC50 at 500 nM after 72 hrs by MTT assay (Rvb = 1607.50 +/- 497.42 nM)
[23] = Inhibition of human ABCB1 expressed in NCI-ADR-RES cells assessed as potentiation of vincristine-induced cytotoxicity by measuring vincristine IC50 at 100 nM after 72 hrs by MTT assay (Rvb = 3714.80 +/- 383.58 nM)
[24] = Inhibition of human ABCB1 transfected in HEK293 cells assessed as potentiation of doxorubicin-induced cytotoxicity by measuring doxorubicin IC50 at 50 nM after 72 hrs by CCK8 assay (Rvb = 504.65 +/- 44.94 nM)
[25] = Inhibition of human ABCB1 expressed in NCI-ADR-RES cells assessed as potentiation of vincristine-induced cytotoxicity by measuring vincristine IC50 at 50 nM after 72 hrs by MTT assay (Rvb = 3714.80 +/- 383.58 nM)
[26] = Inhibition of human ABCB1 expressed in NCI-ADR-RES cells assessed as potentiation of colchicine-induced cytotoxicity by measuring colchicine IC50 at 50 nM after 72 hrs by MTT assay (Rvb = 1607.50 +/- 497.42 nM)
[27] = Inhibition of human ABCB1 expressed in KBV1 cells assessed as potentiation of doxorubicin-induced cytotoxicity by measuring doxorubicin IC50 at 100 nM after 72 hrs by MTT assay (Rvb = 5.07 +/- 0.19 uM)
[28] = Inhibition of human ABCB1 expressed in KBV1 cells assessed as potentiation of colchicine-induced cytotoxicity by measuring colchicine IC50 at 100 nM after 72 hrs by MTT assay (Rvb = 487.57 +/- 30.54 nM)
[29] = Inhibition of human ABCB1 transfected in HEK293 cells assessed as potentiation of doxorubicin-induced cytotoxicity by measuring doxorubicin IC50 at 200 nM after 72 hrs by CCK8 assay (Rvb = 504.65 +/- 44.94 nM)
[30] = Inhibition of human ABCB1 expressed in NCI-ADR-RES cells assessed as potentiation of vincristine-induced cytotoxicity by measuring vincristine IC50 at 200 nM after 72 hrs by MTT assay (Rvb = 3714.80 +/- 383.58 nM)
[31] = Inhibition of human ABCB1 expressed in NCI-ADR-RES cells assessed as potentiation of doxorubicin-induced cytotoxicity by measuring doxorubicin IC50 at 50 nM after 72 hrs by MTT assay (Rvb = 5.54 +/- 0.60 uM)
[32] = Inhibition of human ABCB1 expressed in NCI-ADR-RES cells assessed as potentiation of doxorubicin-induced cytotoxicity by measuring doxorubicin IC50 at 100 nM after 72 hrs by MTT assay (Rvb = 5.54 +/- 0.60 uM)
[33] = Inhibition of human ABCB1 expressed in KBV1 cells assessed as potentiation of doxorubicin-induced cytotoxicity by measuring doxorubicin IC50 at 500 nM after 72 hrs by MTT assay (Rvb = 5.07 +/- 0.19 uM)

COc1cc2c(cc1OC)CN(CCc1ccc(NC(=O)c3cc(OC)c(OC)cc3NC(=O)c3cnc4ccccc4c3)cc1)CC2
IC50 [1]: 25 nM | IC50 [2]: 25 nM | IC50 [3]: 240 nM | IC50 [4]: 19 nM | IC50 [5]: 70 nM | IC50 [6]: 0.66 nM

COc1ccc2cc1Oc1ccc(cc1)C[C@H]1c3cc(c(OC)cc3CCN1C)Oc1c(OC)c(OC)c(OC)c3c1[C@H](C2)N(C)CC3 [CHEBI:5677]
IC50 [7]: 1420 nM | IC50 [8]: 230 nM | IC50 [9]: 1.6 nM | IC50 [10]: 21 nM | IC50 [11]: 224 nM | IC50 [12]: 571 nM | IC50 [13]: 280 nM | IC50 [14]: 100 nM | IC50 [15]: 38300 nM | IC50 [16]: 118 nM | IC50 [17]: 205 nM | IC50 [18]: 32 nM | IC50 [19]: 115 nM | IC50 [20]: 550 nM | IC50 [21]: 76 nM | IC50 [22]: 79 nM | IC50 [23]: 2660 nM | IC50 [24]: 109 nM | IC50 [25]: 3220 nM | IC50 [26]: 1010 nM | IC50 [27]: 700 nM | IC50 [28]: 188 nM | IC50 [29]: 44 nM | IC50 [30]: 970 nM | IC50 [31]: 2810 nM | IC50 [32]: 1310 nM | IC50 [33]: 100 nM
